Experimental data from patent US6221865A, “Inhibitors of protein isoprenyl transferases” (priority 1998, dated 2001).
Where a name gives a salt, the structure may show the parent alone.

The compounds below were run against T1, protein farnesyltransferase (Rattus norvegicus, UniProt Q02293+Q04631) (assay: Inhibition of farnesyltransferase (scintillation proximity assay, rat brain enzyme, biotin-K Ras B fragment substrate)). Details: 1 × 10^-5 M (Table 1).
T1 construct: The enzyme is purified according to Reiss, Y., et al., Cell, 62: 81-88 (1990), utilizing steps one through three; from tissue; host or cells: rat brain
T1 sequence (Q02293 whole entry, the tested form may be a part, one chain of several): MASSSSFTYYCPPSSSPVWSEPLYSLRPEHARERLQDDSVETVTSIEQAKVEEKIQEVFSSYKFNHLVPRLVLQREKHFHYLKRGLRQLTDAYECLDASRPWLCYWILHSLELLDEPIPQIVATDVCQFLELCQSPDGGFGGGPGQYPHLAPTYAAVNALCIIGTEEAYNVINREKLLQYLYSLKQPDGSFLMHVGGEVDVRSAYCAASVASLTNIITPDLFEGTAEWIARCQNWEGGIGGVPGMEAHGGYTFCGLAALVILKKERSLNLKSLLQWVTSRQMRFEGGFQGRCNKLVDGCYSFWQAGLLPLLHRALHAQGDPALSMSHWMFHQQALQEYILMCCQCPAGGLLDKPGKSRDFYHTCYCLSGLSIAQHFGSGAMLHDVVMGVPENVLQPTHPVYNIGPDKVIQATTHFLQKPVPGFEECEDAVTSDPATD
Type: biochemical
Source text: The ability of the compounds of the invention to inhibit protein farnesyltransferase or protein geranylgeranyltransferase can be measured according to the method of Moores, et al., J. Biol. Chem. 266: 14603 (1991) or the method of Vogt, et al., J. Biol. Chem. 270:660-664 (1995). In addition, procedures for determination of the inhibition of farnesylation of the oncogene protein Ras are described by Goldstein, et al., J. Biol. Chem., 266:15575-15578 (1991) and by Singh in U.S. Pat. No. 5,245,061.
In addition, in vitro inhibition of protein farnesyltransferase may be measured by the following procedure. Rat brain protein farnesyltransferase activity is measured using an Amersham Life Science commercial scintillation proximity assay kit and substituting a biotin-K Ras B fragment (biotin-[…]Ble-Met-CO2 H), […] final concentration, for the biotin-lamin substrate provided by Amersham. The enzyme is purified according to Reiss, Y., et al., Cell, 62: 81-88 (1990), utilizing steps one through three.
The % inhibition of protein farnesyltransferase was determined for representative compounds of the invention.
With `CSCC[C@H](NC(=O)c1ccc(CNCCc2cccs2)cc1-c1ccccc1)C(=O)O` [Example 369] the “% inhibition of farnesyltransferase at 1 × 10^-5 M” value (from here on “% inhibition … at 1 × 10^-5 M”) was 87%.
`C=C[C@@H](CC1CCCCC1)NCc1ccc(C(=O)N[C@@H](CCSC)C(=O)O)c(-c2ccccc2)c1` [Example 664] was tested, and the “% inhibition … at 1 × 10^-5 M” value was 75%.
`CSCC[C@H](NC(=O)c1ccc(CNc2cc(C)ns2)cc1-c1ccccc1)C(=O)O` [Example 373] was tested, and the “% inhibition … at 1 × 10^-5 M” value was 76%.
For `CSCC[C@H](NC(=O)c1ccc(CNc2ccc(C)c(C)c2)cc1-c1ccccc1)C(=O)O` [Example 704], the “% inhibition … at 1 × 10^-5 M” value was 67%.
With `CSCC[C@H](NC(=O)c1ccc(CNc2cccc(OC(F)(F)F)c2)cc1-c1ccccc1)C(=O)O` [Example 678] the “% inhibition … at 1 × 10^-5 M” value was 73%.
With `CSCC[C@H](NC(=O)c1ccc(CNCc2cc(Cl)cc(Cl)c2)cc1-c1ccccc1)C(=O)O` [Example 712] the “% inhibition … at 1 × 10^-5 M” value was 69%.
For `CSCC[C@H](NC(=O)c1ccc(CNc2cccc(N(C)C)c2)cc1-c1ccccc1)C(=O)O` [Example 683], the “% inhibition … at 1 × 10^-5 M” value was 57%.

Same assay, conditions: 1 × 10^-6 M (Table 2)
In the case of `CSCC[C@H](NC(=O)c1ccc(CNCC(O)CO)cc1-c1ccccc1)C(=O)O` (some centres unmarked) [Example 632], the “% inhibition of farnesyltransferase at 1 × 10^-6 M” value (“% inhibition … at 1 × 10^-6 M” below) is reported as 43%.
For `CSCC[C@H](NC(=O)c1ccc(COCC2CCOC2)cc1-c1ccccc1)C(=O)O` (some centres unmarked) [Example 287], the “% inhibition … at 1 × 10^-6 M” value was 24%.
For `CSCC[C@H](NC(=O)c1ccc(COC2(c3ccccc3)CCN(C(=O)OC(C)(C)C)CC2)cc1-c1ccccc1C)C(=O)[O-].[Li+]` [Example 816], the “% inhibition … at 1 × 10^-6 M” value was 87%.
In the case of `COc1ccc(CNCc2ccc(C(=O)N[C@@H](CCSC)C(=O)O)c(-c3ccccc3)c2)c(OC)c1` [Example 655], the “% inhibition … at 1 × 10^-6 M” value is reported as 35%.
For `CSCC[C@H](NC(=O)c1ccc(NC(=O)Cc2ccccc2)cc1-c1ccccc1C)C(=O)O` [Example 540], the “% inhibition … at 1 × 10^-6 M” value was 40%.
With `CSCC[C@H](NC(=O)c1ccc(CNc2cccc(I)c2)cc1-c1ccccc1)C(=O)O` [Example 677] the “% inhibition … at 1 × 10^-6 M” value was 37%.
For `CSCC[C@H](NC(=O)c1ccc(CNc2ccccc2N2CCCCC2)cc1-c1ccccc1)C(=O)O` [Example 673], the “% inhibition … at 1 × 10^-6 M” value was 59%.
For `CSCC[C@H](NC(=O)c1ccc(CNc2ccccc2C(N)=O)cc1-c1ccccc1)C(=O)O` [Example 644], the “% inhibition … at 1 × 10^-6 M” value was 54%.
`CSCC[C@H](NC(=O)c1ccc(OC/C=C(\C)CC/C=C(\C)CCC=C(C)C)cc1-c1ccccc1C)C(=O)O` [Example 547] was tested, and the “% inhibition … at 1 × 10^-6 M” value was 91%.
`CCS(=O)(=O)C[C@H](CC1CCCCC1)NCc1ccc(C(=O)N[C@@H](CCSC)C(=O)O)c(-c2ccccc2C)c1` [Example 620] was tested, and the “% inhibition … at 1 × 10^-6 M” value was 98%.
With `CSCC[C@H](NC(=O)c1ccc(CN(Cc2ccco2)C(C)C)cc1-c1ccccc1C)C(=O)O` [Example 831] the “% inhibition … at 1 × 10^-6 M” value was 92%.
`CSCC[C@H](NC(=O)c1ccc(CNC(CC2CCCCC2)C(O)C(O)CC(C)C)cc1-c1ccccc1C)C(=O)O` (some centres unmarked) [Example 528] was tested, and the “% inhibition … at 1 × 10^-6 M” value was 99%.
With `CSCC[C@H](NC(=O)c1ccc(COC2CCN(Cc3ccccc3)CC2)cc1-c1ccccc1C)C(=O)O` [Example 807] the “% inhibition … at 1 × 10^-6 M” value was 90%.
`CSCC[C@H](NC(=O)c1ccc(COCc2ccccc2C)cc1-c1ccccc1C)C(=O)[O-].[Li+]` [Example 577] was tested, and the “% inhibition … at 1 × 10^-6 M” value was 94%.

Same assay, conditions: 1 × 10^-7 M (Table 3)
For `CSCC[C@H](NC(=O)c1ccc(CSc2ncnc3[nH]cnc23)cc1-c1ccccc1C)C(=O)O` [Example 747], the “% inhibition of farnesyltransferase at 1 × 10^-7 M” value (“% inhibition … at 1 × 10^-7 M” for short) was 68%.
`CSCC[C@H](NC(=O)c1ccc(COCc2cnc(C(C)(C)C)s2)cc1-c1ccccc1C)C(=O)[O-].[Li+]` [Example 895] was tested, and the “% inhibition … at 1 × 10^-7 M” value was 92%.
In the case of `CSCC[C@H](NC(=O)c1ccc(COCc2cccc(C)c2)cc1-c1ccccc1C)C(=O)[O-].[Li+]` [Example 578], the “% inhibition … at 1 × 10^-7 M” value is reported as 90%.
`CSCC[C@H](NC(=O)c1ccc(CSc2nc3ccccc3[nH]2)cc1-c1ccccc1C)C(=O)O` [Example 732] was tested, and the “% inhibition … at 1 × 10^-7 M” value was 84%.
For `CSCC[C@H](NC(=O)c1ccc(COCCc2ccc(-c3ccc(Cl)cc3)o2)cc1-c1ccccc1C)C(=O)[O-].[Li+]` [Example 536], the “% inhibition … at 1 × 10^-7 M” value was 79%.
`CSCC[C@H](NC(=O)c1ccc(COC(Cc2ccccc2)c2ccco2)cc1-c1ccccc1C)C(=O)[O-].[Li+]` (some centres unmarked) [Example 534] was tested, and the “% inhibition … at 1 × 10^-7 M” value was 84%.
With `CSCC[C@H](NC(=O)c1ccc(COc2cccc3ccccc23)cc1-c1ccccc1C)C(=O)O` [Example 574] the “% inhibition … at 1 × 10^-7 M” value was 81%.
With `CSCC[C@H](NC(=O)c1ccc(COCc2cncs2)cc1-c1ccccc1C)C(=O)[O-].[Li+]` [Example 539] the “% inhibition … at 1 × 10^-7 M” value was 89%.
In the case of `COc1ccccc1N(Cc1ccccc1)Cc1ccc(C(=O)N[C@@H](CCSC)C(=O)O)c(-c2ccccc2C)c1` [Example 839], the “% inhibition … at 1 × 10^-7 M” value is reported as 63%.

Same assay, conditions: 1 × 10^-8 M (Table 4)
With `CSCC[C@H](NC(=O)c1ccc(CN(Cc2ccccc2)c2cccc([N+](=O)[O-])c2)cc1-c1ccccc1C)C(=O)[O-].[Li+]` [Example 842] the “% inhibition of farnesyltransferase at 1 × 10^-8 M” value (“% inhibition … at 1 × 10^-8 M” below) was 88%.
`CSCC[C@H](NC(=O)c1ccc(COCc2cnc(-c3ccc(Cl)cc3)s2)cc1-c1ccccc1C)C(=O)[O-].[Li+]` [Example 901] was tested, and the “% inhibition … at 1 × 10^-8 M” value was 84%.
`CSCC[C@H](NC(=O)c1ccc(CO[C@H](CSC(C)(C)C)Cc2ccccc2)cc1-c1ccccc1C)C(=O)O` [Example 994] was tested, and the “% inhibition … at 1 × 10^-8 M” value was 83%.
For `CCSC[C@H](CC1CCCCC1)N(C)Cc1ccc(C(=O)N[C@@H](CCSC)C(=O)O)c(-c2ccccc2C)c1` [Example 944], the “% inhibition … at 1 × 10^-8 M” value was 88%.
`CCSC[C@H](CC1CCCCC1)N(C=O)Cc1ccc(C(=O)N[C@@H](CCSC)C(=O)O)c(-c2ccccc2C)c1` [Example 946] was tested, and the “% inhibition … at 1 × 10^-8 M” value was 52%.
With `CSCC[C@H](NC(=O)c1ccc(COCc2cccc(C(C)C)c2)cc1-c1ccccc1C)C(=O)[O-].[Li+]` [Example 939] the “% inhibition … at 1 × 10^-8 M” value was 72%.

Same assay, conditions: Table 6, ** = 0.01 μM (footnote); title prints 0.01 mM
`COCCN(CCC1CCCCC1)Cc1ccc(C(=O)N[C@@H](CCSC)C(=O)O)c(-c2ccccc2C)c1` [Example 1104] was tested, and the “% inhibition at 0.01 μM (**)” value was 89%.

Same assay, conditions: read-out: % inhibition at 0.01 μM (**); Table 6, ** = 0.01 μM (footnote); title prints 0.01 mM
Compound `CCCCP(=O)(Cc1ccc(C(=O)N[C@@H](CCSC)C(=O)O)c(-c2ccccc2C)c1)CC1CCCCC1` (some centres unmarked) [Example 1213, N-[4-((Cylohexylmethyl)butyl(oxophosphinyl)methyl)-2-(2-methylphenyl)benzoyl]methionine] has an inhibition at 0.01 µM of 79%.

Same assay, conditions: read-out: % inhibition at 0.1 μM (*); Table 6, * = 0.1 μM (footnote); title prints 0.1 mM
`COC1CC(COCc2ccccc2)N(Cc2ccc(C(=O)N[C@@H](CCSC)C(=O)O)c(-c3ccccc3C)c2)C1` (some centres unmarked) [Example 1121, N-[4-(2-benzyloxymethyl-4-methoxypyrrolidin-1-ylmethyl)-2-(2-methylphenyl)benzoyl]methionine] gave an inhibition at 0.1 µM of 72%.

Same assay, conditions: read-out: % inhibition of farnesyltransferase at 1 × 10^-6 M; 1 × 10^-6 M (Table 2)
Compound `CSCC[C@H](NC(=O)c1ccc(CN2C(=O)OC[C@@H]2CC2CCCCC2)cc1-c1ccccc1C)C(=O)O` [Example 349, [4-(5-cyclohexylmethyloxazolid-2-on-1-ylmethyl)-2-(2-methylphenyl)benzoyl]methionine] has an inhibition at 1 µM of 99%.
Compound `Cc1ccccc1-c1cc(CN(C2CC2)C2(CC3CCCCC3)CCCC2)ccc1C(=O)N[C@@H](CCS(C)(=O)=O)C(=O)O` [Example 346] has an inhibition at 1 µM of 98%.
For `Cc1ccccc1-c1cc(CCc2ccccc2Oc2ccccc2)ccc1C(=O)N[C@@H](CC[S+](C)[O-])C(=O)O` (some centres unmarked) [Example 456, N-[4-(2-(2-phenoxyphenyl)ethyl)-2-(2-methylphenyl)benzoyl]-2-amino-4-methylsulfinylbutanoic acid lithium salt], the inhibition at 1 µM was 81%.
For `CSCC[C@H](NC(=O)c1ccc(CNC(C)(C)CC2CCCCC2)cc1-c1ccccc1C)C(=O)O` [Example 308], the inhibition at 1 µM was 62%.
Work on `CSCC[C@H](NC(=O)c1ccc(/C=C/CC(O)c2ccc3ccccc3c2)cc1-c1ccccc1C)C(=O)O` (some centres unmarked) [Example 474, N-[4-(4-naphth-2-ylbut-4-ol-1-enyl)-2-(2-methylphenyl)benzoyl]methionine] yielded an inhibition at 1 µM of 92%.

Same assay, conditions: read-out: % inhibition of farnesyltransferase at 1 × 10^-7 M; 1 × 10^-7 M (Table 3)
For `CSCC[C@H](NC(=O)c1ccc(CN2CCCC(OCC3CCCCC3)C2)cc1-c1ccccc1C)C(=O)O` (some centres unmarked) [Example 990, N-[4-(3-cyclohexylmethoxypiperidin-1-ylmethyl)-2-(2-methylphenyl)benzoyl]methionine], the inhibition at 0.1 µM was 84%.
Work on `CSCC[C@H](NC(=O)c1ccc(CCc2cccc(Oc3ccccc3)c2)cc1-c1ccccc1C)C(=O)O` [Example 459, N-[4-(2-(3-phenoxyphenyl)ethyl)-2-(2-methylphenyl)benzoyl]methionine lithium salt] yielded an inhibition at 0.1 µM of 92%.

Same assay, conditions: read-out: % inhibition of farnesyltransferase at 1 × 10^-8 M; 1 × 10^-8 M (Table 4)
Work on `CSCC[C@H](NC(=O)c1ccc(CN2CCC[C@H]2COc2ccccc2)cc1-c1ccccc1C)C(=O)O` [Example 991, N-[4-(2-phenoxymethylpyrrolidin-1-ylmethyl)-2-(2-methylphenyl)benzoyl]methionine] yielded an inhibition at 0.01 µM of 69%.
